Reference: US11299760B2 (Amgen Inc., priority 2013, dated 2022)

Columns and labels:
[1] = system: recombinant cell line producing MAb E; experiment: ATF bioreactors, high mannose analysis (RP-HPLC/MS); assay type: cell-based
Protocol: The applicability of using monensin to modulate high mannose levels in a large scale, controlled production setting was evaluated using a recombinant cell line producing MAb E in alternating tangential flow (ATF) bioreactors. MAb E cells grown in growth medium for the seed train were used to inoculate the N-1 bioreactor at 6×10^5 cells/ml in growth medium. The cells from N-1 bioreactor were then used to inoculate three, 2 L production bioreactors (N) at 7.5×10^5 cells/ml in base perfusion medium (referred to as control, Ra, and Rb bioreactors).
The production bioreactors were grown for 20 days at pH 7.00, 36° C., 30% DO and 400 rpm agitation. These production tanks were run with the ATF system starting on day 3 with 0.5 vol/day perfusion rate, which was increased to 0.6 vol/day, 0.8352 vol/day and 1 vol/day on day 6, 7 and 8, respectively. Glucose levels were maintained separately at 5 g/L since the perfusion medium was prepared without glucose.
Antifoam was also added into the tank as needed, while 1M Sodium Carbonate was used to maintain pH at the desired setpoint. Daily tank samples were collected for the measurement of various cell culture parameters as well as for the titer and high mannose analyses.
Sixty micrograms of daily MAb E samples collected from ATF bioreactors were digested into the Fc/2 and Fab′2 with 60 units of the IdeS enzyme (fabRICATOR, Genovis, Lund, Sweden) in 50 mM Sodium Phosphate, 150 mM NaCl, pH 6.6 with incubation in a 37° C. water bath for 30 minutes. The digested samples were then reduced in 4M Guanidine Hydrochloride 50 mM Tris, pH 8.3 with 50 mM DTT followed by incubation in a 55° C. heat block for 10 minutes resulting in reduction to Fc/2, LC and Fd.
Following digestion and reduction, samples were analyzed immediately by RP-HPLC/MS.
Analysis was performed using Waters Acquity Ultra-Performance liquid chromatography (UPLC) system (Waters, Milford, Mass.) coupled to an Agilent MST Time of Flight (TOF) mass spectrometer (Agilent Technologies, Santa Clara, Calif.). The digested and reduced samples were separated on a reversed-phased Waters BEH Phenyl column (1.7 micron particle size, 2.1×150 mm; Waters, Milford, Mass.) maintained at 80° C. […]
Five micrograms of each sample was injected and eluted at a flow rate of 0.5 mL/min with the following gradient: 30% B was held for 2.5 minutes followed by a gradient from 30% to 45% B over a duration of 5 minutes, followed by a gradient from 45% to 100% B over 0.5 minutes; B was held at 100% for 4 minutes, followed by a gradient of 100% to 30% B over 0.1 minutes, and then held at 30% B for the remaining 2.9 minutes. The UV elution was also monitored at a wavelength of 220 nm. […] Ion intensities of the deconvoluted peaks were used for quantification of the glycan species.

[2] = system: recombinant CHO cell line producing an antibody (MAb A); experiment: six day batch assay, cell culture parameters (VCD, viability, titer); assay type: cell-based, Chinese hamster; details: for Titer / VCD / Viability: day 6
Protocol: Cells were centrifuged at 1500 rpm for five minutes and seeded at 2×10^6 cells per ml into batch production medium in a 24 deep-well plate at a final volume of 3 ml.
Cell density and viability were measured by Guava easyCyte flow cytometer (Milipore, Billerica, Mass.) with the ViaCount application. Cultures were spun down, supernatants were filtered on 0.4 micron filters, and were analyzed for titer and glycan distribution.
Antibody titer was measured by loading filtered cell culture supernatants over a POROS A/20 Protein A column (Applied Biosystems, Carlsbad, Calif.) equilibrated with 20 mM Tris, […], pH 7.0 buffer. Antibody elution was performed with 220 mM acetic acid, […], pH 2.6 buffer at a mobile phase flow rate of 4.0 ml/min. Eluted antibody was detected at a wavelength of 280 nm. Antibody concentration was determined based on a standard curve with a reference antibody standard. For high molecular weight measurement, antibodies were purified from spent medium supernatants on ATOLL columns (ATOLL-Bio Inc USA, Lawrance, Kans.) and were then analyzed using size exclusion chromatography.
Cell culture performance was assessed via viable cell density (VCD), viability and titer measurements of harvested samples. Each bar represents an average result for duplicate cell culture samples. Each value is an average of duplicates.

[3] = 500 nM monensin for ~22 hours from day 8, MAb E

With CC[C@@]1([C@@H]2O[C@@H]([C@H]3O[C@@](O)(CO)[C@H](C)C[C@@H]3C)C[C@@H]2C)CC[C@H]([C@]2(C)CC[C@]3(C[C@H](O)[C@@H](C)[C@@H]([C@@H](C)[C@@H](OC)[C@H](C)C(=O)O)O3)O2)O1 [monensin] the “high mannose levels, initial spike” value [1, 3] was 35-50%, the “increase in the levels of high mannose glycans on the recombinant antibodies” value [1, 3] was 9-10 fold and the “high mannose levels on the day of the harvest” value ([1]; after flushing out of monensin by perfusion, MAb E) was 15-17%. For the same molecule, the “produced antibodies containing high mannose glycans at peak” value ([1]; day 10, 500 nM monensin for ~22 hours from day 8, from predicted and measured levels) was 89%, the Titer ([2]; 0.1 nM monensin added day 1) was 3.835 g/L and the VCD ([2]; 0.1 nM monensin added day 1) was 10 10^6c/ml. For the same molecule, the Viability ([2]; 0.1 nM monensin added day 1) was 81%, the Titer ([2]; 0.5 nM monensin added day 1) was 4.415 g/L and the VCD ([2]; 0.5 nM monensin added day 1) was 11 10^6c/ml. The Viability ([2]; 0.5 nM monensin added day 1) was 81%, the Titer ([2]; 1 nM monensin added day 1) was 4.265 g/L and the VCD ([2]; 1 nM monensin added day 1) was 11 10^6c/ml. For the same molecule, the Viability ([2]; 1 nM monensin added day 1) was 82%, the Titer ([2]; 5 nM monensin added day 1) was 3.45 g/L and the VCD ([2]; 5 nM monensin added day 1) was 11 10^6c/ml. For the same molecule, the Viability ([2]; 5 nM monensin added day 1) was 82%, the Titer ([2]; 10 nM monensin added day 1) was 3.635 g/L and the VCD ([2]; 10 nM monensin added day 1) was 11 10^6c/ml. The Viability ([2]; 10 nM monensin added day 1) was 81%, the “impact on cell culture parameters” value ([2]; 25 nM bolus on day 0 or 200 nM or 100 nM bolus on day 3) was “no negative impact on cell culture parameters” and the Titer ([2]; 25 nM monensin added day 1) was 5.22 g/L. The VCD ([2]; 25 nM monensin added day 1) was 11 10^6c/ml, the Viability ([2]; 25 nM monensin added day 1) was 85% and the Titer ([2]; 50 nM monensin added day 1) was 2.025 g/L. The VCD ([2]; 50 nM monensin added day 1) was 5 10^6c/ml, the Viability ([2]; 50 nM monensin added day 1) was 72% and the Titer ([2]; 100 nM monensin added day 3) was 3.515 g/L. The VCD ([2]; 100 nM monensin added day 3) was 11 10^6c/ml, the Viability ([2]; 100 nM monensin added day 3) was 86% and the Titer ([2]; 200 nM monensin added day 3) was 4.43 g/L. For the same molecule, the VCD ([2]; 200 nM monensin added day 3) was 11 10^6c/ml, the Viability ([2]; 200 nM monensin added day 3) was 87% and the Titer ([2]; 500 nM monensin added day 3) was 3.055 g/L. For the same molecule, the VCD ([2]; 500 nM monensin added day 3) was 5 10^6c/ml and the Viability ([2]; 500 nM monensin added day 3) was 41%.
